Measured values published in publication PMC10428001 (Cancer research, 2022).

What was measured:
[1] = system: Ba/F3 cells HER2 M774delinsWLV; assay: Ba/F3 cell viability; type: cell-based; conditions: Mus musculus, BaF3, 72 h, read-out: IC50 (average ± SD)
[2] = system: Ba/F3 cells HER2 V777L; assay: Ba/F3 cell viability; type: cell-based; conditions: Mus musculus, BaF3, 72 h, read-out: IC50 (average ± SD)
[3] = system: H1781; assay: Cancer cell viability; type: cell-based, human; conditions: Homo sapiens, NCI-H1781, 72 h, read-out: IC50 (average ± SD)
[4] = system: MCF7; assay: Cancer cell viability; type: cell-based, human; conditions: Homo sapiens, MCF7, 72 h, read-out: IC50 (average ± SD)
[5] = system: BT-474; assay: Cancer cell viability; type: cell-based, human; conditions: Homo sapiens, BT-474, 72 h, read-out: IC50 (average ± SD)
[6] = system: NCI-N87; assay: Cancer cell viability; type: cell-based, human; conditions: Homo sapiens, NCI-N87, 72 h, read-out: IC50 (average ± SD)
[7] = system: Ba/F3 cells HER2 S310F; assay: Ba/F3 cell viability; type: cell-based; conditions: Mus musculus, BaF3, 72 h, read-out: IC50 (average ± SD)
[8] = system: SKBR3; assay: Cancer cell viability; type: cell-based, human; conditions: Homo sapiens, SK-BR-3, 72 h, read-out: IC50 (average ± SD)
[9] = system: Ba/F3 cells HER2 amplification; assay: Ba/F3 cell viability; type: cell-based; conditions: Mus musculus, BaF3, 72 h, read-out: IC50 (average ± SD)
[10] = system: Ba/F3 cells HER2 L755S; assay: Ba/F3 cell viability; type: cell-based; conditions: Mus musculus, BaF3, 72 h, read-out: IC50 (average ± SD)
[11] = system: H1819; assay: Cancer cell viability; type: cell-based; conditions: Homo sapiens, NCI-H1819, 72 h, read-out: IC50 (average ± SD)
[12] = system: Ba/F3 cells HER2 V862I; assay: Ba/F3 cell viability; type: cell-based; conditions: Mus musculus, BaF3, 72 h, read-out: IC50 (average ± SD)
[13] = system: Ba/F3 cells HER2 P780_Y781insGSP; assay: Ba/F3 cell viability; type: cell-based; conditions: Mus musculus, BaF3, 72 h, read-out: IC50 (average ± SD)
[14] = system: Ba/F3 cells WT EGFR (+ rhEGF); assay: Ba/F3 cell viability; type: cell-based; conditions: Mus musculus, BaF3, 72 h, read-out: IC50 (average ± SD)
[15] = system: Ba/F3 cells HER2 A775_G776insYVMA; assay: Ba/F3 cell viability; type: cell-based; conditions: Mus musculus, BaF3, 72 h, read-out: IC50 (average ± SD)
[16] = system: Calu-3; assay: Cancer cell viability; type: cell-based; conditions: Homo sapiens, Calu-3, 72 h, read-out: IC50 (average ± SD)
[17] = system: Ba/F3 cells HER2 755_757LREdelinsRP; assay: Ba/F3 cell viability; type: cell-based; conditions: Mus musculus, BaF3, 72 h, read-out: IC50 (average ± SD)
[18] = system: Ba/F3 cells HER2 G776delinsVC; assay: Ba/F3 cell viability; type: cell-based; conditions: Mus musculus, BaF3, 72 h, read-out: IC50 (average ± SD)
[19] = system: HER2 mutant lung cancer; conditions: patients with HER2 mutant NSCLC, clinical trial ref 35; cited from earlier work
[20] = system: DFCI 429; assay: Patient-derived cancer cell viability; type: cell-based, human; conditions: Homo sapiens, 72 h, read-out: IC50 (average ± SD)
[21] = system: A-431; assay: Cancer cell viability; type: cell-based, human; conditions: read-out: IC50 (average ± SD); A-431, epidermoid, EGFR amp, 72 h
[22] = system: WT EGFR vs all HER2 mutants Ba/F3 cells; assay: Selectivity index from Ba/F3 IC50 ratios; type: cell-based; conditions: average over HER2 mutants
[23] = system: Calu-3 tumors; assay: Calu-3 xenograft efficacy; type: in vivo; conditions: Calu-3 in NCr nude mice, oral, 39 days; JBJ-08-178-01 at 50 mg/kg BID

Row | IC50 [1] [nM] | IC50 [2] [nM] | IC50 [3] [nM] | IC50 [4] [nM] | IC50 [5] [nM] | IC50 [6] [nM] | IC50 [7] [nM] | IC50 [8] [nM] | IC50 [9] [nM] | IC50 [10] [nM] | IC50 [11] [nM] | IC50 [12] [nM] | IC50 [13] [nM] | IC50 [14] [nM] | IC50 [15] [nM] | IC50 [16] [nM] | IC50 [17] [nM] | IC50 [18] [nM] | IC50 [20] [nM] | Structure (SMILES) | other results
1 | 621 ± 333 | 13.1 ± 5.79 | 2420 | 6790 | 3780 | 16.3 ± 6.6 | 530 ± 407 | 5390 | 177 ± 88.6 | 845 ± 381 | 341 ± 171 | 336 ± 74.5 | 210 ± 56 | 302 ± 64.8 | 202 ± 70.2 | 248 ± 220 | 130 ± 18 | 65.3 ± 49.7 | – | CS(=O)(=O)CCNCc1ccc(-c2ccc3ncnc(Nc4ccc(OCc5cccc(F)c5)c(Cl)c4)c3c2)o1 [lapatinib] | –
2 | 3.45 ± 2.45 | 2.43 ± 0.77 | 197 ± 147 | 5940 | 368 ± 414 | 0.7 | 73.5 ± 41.1 | 929 | 1.08 ± 1.04 | 523 ± 440 | 75.5 ± 28.8 | 29.3 ± 43 | 1.28 ± 1.12 | 1.41 ± 0.56 | 1.05 ± 0.67 | 4.7 ± 2 | 0.95 ± 0.94 | 1.17 ± 0.86 | 744 ± 747 | C=CC(=O)N1CCC(Oc2cc3c(Nc4ccc(Cl)c(Cl)c4F)ncnc3cc2OC)CC1 [poziotinib] | IC50 [21]: 59.9 ± 46.1 nM
3 | 683 ± 288 | 7.2 ± 0.57 | 3910 | 11300 | 1730 | 16.2 ± 2.4 | 371 ± 168 | 840 ± 918 | 126 ± 81.8 | 2090 ± 981 | 521 ± 551 | 1940 ± 1110 | 131 ± 37.3 | 5180 ± 2520 | 269 ± 88.1 | 1900 | 102 ± 23.6 | 97.8 ± 43.3 | 2790 | Cc1cc(Nc2ncnc3ccc(NC4=NC(C)(C)CO4)cc23)ccc1Oc1ccn2ncnc2c1 [tucatinib] | Selectivity index (IC50 ratio = WT EGFR ÷ all HER2 mutants) [22]: 8.91; tumor growth [23]: less efficacious than other covalent inhibitors

Row | Structure (SMILES) | IC50 [1] [nM] | IC50 [2] [nM] | IC50 [3] [nM] | IC50 [4] [nM] | IC50 [5] [nM] | IC50 [6] [nM] | IC50 [7] [nM] | IC50 [8] [nM] | IC50 [9] [nM] | IC50 [10] [nM] | IC50 [11] [nM] | IC50 [12] [nM] | IC50 [13] [nM] | IC50 [14] [nM] | IC50 [15] [nM] | IC50 [16] [nM] | IC50 [17] [nM] | IC50 [18] [nM] | IC50 [20] [nM] | other results
4 | CCOc1cc2ncc(C#N)c(Nc3ccc(OCc4ccccn4)c(Cl)c3)c2cc1NC(=O)/C=C/CN(C)C [neratinib] | 16 ± 11.7 | 2.66 ± 0.48 | 296 ± 331 | 1280 | 48 ± 10 | 1.1 ± 0.1 | 49.1 ± 64 | 68.4 ± 65.5 | 5.64 ± 3.72 | 112 ± 69.7 | 50.8 ± 14.1 | 8.64 ± 3.81 | 4.96 ± 2.31 | 13.5 ± 6.52 | 5.78 ± 2.09 | 57.9 ± 39.6 | 5.41 ± 4.54 | 7.4 ± 4.64 | 51.9 ± 45.8 | patients with objective response [19]: one out of 26
